Laboratory results from ChEMBL document CHEMBL1857833, “Screening and optimization of specific chemical series against human African Trypanosomiasis (HAT)”.
Converted amounts (≈) assume the structure as drawn.

Columns and labels:
[1] = DNDI: Cytotoxicity against L929 mouse fibroblasts, 72 hour.; format: toxicity, cell-based; conditions: mouse, L929 mouse fibroblasts
Trypanosoma brucei = assay: DNDI: Inhibition of Human African Trypanosomiasis, SBRI 427, in vitro; format: functional, organism-based; conditions: Trypanosoma brucei, SBRI 427; read-out: IC50

SMILES	IC50 (Trypanosoma brucei) [µg/mL]	IC50 at 72 h [1] [µg/mL]
CCCCc1ccc(-c2nc(CC)co2)cc1	> 5	6.2 (≈ 27 µM)
COc1ccccc1Oc1ncccc1/C(N)=N\O	> 5	> 10
Cc1ccc(/C(=N/O)Nc2cccc(F)c2)c(Oc2c(F)cccc2F)n1	3.75 (≈ 10 µM)	> 10
Cc1cc(NCCN2CCCC2)n2nc(-c3cccc(F)c3)cc2n1	> 5	> 10
CCCCCc1ccc(-c2nc(CNC(C)CCCCC)co2)cc1 (stereo not drawn)	1.09 (≈ 3.18 µM)	1.01 (≈ 2.95 µM)
CCCCOc1ccc(-c2nc(CNCC(C)(C)C)co2)cc1	0.9 (≈ 2.84 µM)	1.8 (≈ 5.69 µM)
COc1ccc(/C=N/OCc2c(F)c(F)c(F)c(F)c2F)cc1	> 5	> 10
C[C@@H]1[C@H]2C[C@@H](C[C@H]1NCc1coc(-c3ccc(OC4CCCCC4)cc3)n1)C2(C)C	0.57 (≈ 1.4 µM)	1.59 (≈ 3.89 µM)
CC(C)(C)OC(=O)N1CCN(c2cc(C(C)(C)C)nc3cc(-c4ccc(F)cc4)nn23)CC1	> 5	> 10
CCCCCC(C)NCc1coc(-c2ccc(CC)cc2)n1 (stereo not drawn)	1 (≈ 3.33 µM)	2.61 (≈ 8.69 µM)
CC(C)(C)OC(=O)N1CCC(Nc2cc(-c3ccccc3)nc3cc(-c4ccc(F)cc4)nn23)CC1	> 5	> 10
Cc1cc(=O)n2nc(-c3cccc(F)c3)cc2[nH]1	> 5	> 10
COc1ccc(S(=O)(=O)NC2CCCCC2)cc1	> 5	> 10
COc1ccc(S(=O)(=O)Nc2ccccn2)cc1OC	> 5	> 10
COc1ccc(S(=O)(=O)Nc2ccccn2)cc1	> 5	> 10
CCCCCC(C)NCc1coc(-c2ccc(OC(F)(F)C(F)F)cc2)n1 (stereo not drawn)	1.42 (≈ 3.66 µM)	4.3 (≈ 11.1 µM)
CCCCCC(C)NCc1coc(-c2cc(C(F)(F)F)cc(C(F)(F)F)c2)n1 (stereo not drawn)	2.06 (≈ 5.04 µM)	> 10
CCCCCC(C)NCc1coc(-c2ccccc2C#N)n1 (stereo not drawn)	3.76 (≈ 12.6 µM)	> 10
CCCCc1ccc(-c2nc(CNCc3ccccn3)co2)cc1	> 5	9.31 (≈ 29 µM)
CCCCc1ccc(-c2nc(C)c(C)o2)cc1	> 5	5.21 (≈ 22.7 µM)
CCCCCC(C)NCc1coc(-c2ccc(OCCCC)c(OC)c2)n1 (stereo not drawn)	0.38 (≈ 1.01 µM)	1.48 (≈ 3.95 µM)
COc1ccc(/C(=N/O)Nc2cccc(C(C)C)c2)cc1	1.41 (≈ 4.96 µM)	5.81 (≈ 20.4 µM)
C/C(O)=C1\C(=O)NC(COCc2ccccc2)C1=O (stereo not drawn)	> 5	> 10
CCC(CC)Oc1ccc(-c2nc(CNCCCN(C)C)co2)cc1	> 5	> 10
CCC(C)Oc1ccc(-c2nc(CNCCCN(C)C)co2)cc1 (stereo not drawn)	> 5	> 10
CC(C)CC(NCCc1ccc(S(N)(=O)=O)cc1)c1nc(C(C)C)c(N2CCOCC2)o1 (stereo not drawn)	> 5	> 10
Clc1nc(Oc2cccc3ccccc23)c2sccc2n1	> 5	2.52 (≈ 8.06 µM)
COc1cccc(-c2nc(CNCCC3CCCN3C)c(C)o2)c1 (stereo not drawn)	2.2 (≈ 6.68 µM)	> 10
CC(C)(C)c1cc(=O)n2nc(-c3ccc(F)cc3)cc2[nH]1	> 5	> 10

Further lines, with some results ahead:

IC50 (Trypanosoma brucei) [µg/mL]	SMILES	IC50 at 72 h [1] [µg/mL]
> 5	CCCCc1ccc(-c2nc(-c3ccc4ccccc4c3)co2)cc1	> 10
2.22 (≈ 5.53 µM)	Fc1cccc(-c2cc3nc(-c4ccccc4)cc(NCCN4CCCC4)n3n2)c1	1.54 (≈ 3.84 µM)
> 5	CCC(C)C(NCc1cccc(C)c1)c1nc(-c2ccccc2)c(N2CCCCC2)o1 (stereo not drawn)	> 10
> 5	CCC(C)C(NCc1ccc(OC)c(OC)c1)c1nc(-c2ccccc2)c(N2CCCCC2)o1 (stereo not drawn)	> 10
> 5	CC(C)(C)OC(=O)N1CCN(c2cc(-c3ccccc3)nc3cc(-c4ccc(F)cc4)nn23)CC1	> 10
0.69 (≈ 2.06 µM)	CCCCc1ccc(-c2nc(CNCCc3ccccc3)co2)cc1	2.3 (≈ 6.88 µM)
> 5	Cc1ccc(CNC(c2cccc(C#N)c2)c2nc(Cc3ccccc3)c(N3CCOCC3)o2)cc1 (stereo not drawn)	> 10
> 5	Cc1ccc(CNC(c2nc(-c3ccccc3)c(N3CCOCC3)o2)C2CC2)cc1 (stereo not drawn)	> 10
> 5	Cc1ccc(CNC(c2ccccc2)c2nc(-c3ccccc3)c(N3CCCCC3)o2)cc1 (stereo not drawn)	> 10
> 5	Fc1ccc(-c2cc3nc(-c4ccccc4)cc(NCCN4CCOCC4)n3n2)cc1	> 10
> 5	Fc1ccc(-c2cc3nc(-c4ccccc4)cc(NCCCN4CCOCC4)n3n2)cc1	> 10
> 5	CCC(C)C(NCc1ccccc1OC)c1nc(Cc2ccccc2)c(N2CCCCC2)o1 (stereo not drawn)	> 10
> 5	Nc1oc(-c2ccccc2)nc1C(=O)c1ccc(-c2ccccc2)cc1	5.23 (≈ 15.4 µM)
2.58 (≈ 5.45 µM)	CC(C)CC(NCc1ccc(C(F)(F)F)cc1)c1nc(-c2ccccc2)c(N2CCOCC2)o1 (stereo not drawn)	> 10
> 5	C(=N\Oc1ccccc1)/c1ccccc1-c1ccccc1	> 10
